Source: patent publication US20120295887A1, “PHARMACEUTICALLY ACCEPTABLE SALTS OF PYRROLO-NITROGENOUS HETEROCYCLIC DERIVATIVES, PREPARATION METHOD AND MEDICAL USE THEREOF” (SHANGHAI HENGRUI PHARMACEUTICAL CO., LTD., priority 2010, published 2012)
Counter-ions that a name gives are not always drawn. Like-named read-outs stand apart in the source and are kept apart here.

Key:
[1] = Pharmacokinetics assay in rats (intragastric and tail vein administration, plasma LC/MS/MS); assay type: in vivo; settings: for F (oral absolute bioavailability) / bioavailability: intragastric 10 mg/kg (calculated by the base part), from AUC0-t vs tail vein injection; for Cmax: 0.5% CMC-Na suspension; for bioavailability: read-out: F (oral absolute bioavailability)
Description: The rats were used as experimental animals. The compound of formula (I) and other salts thereof were administrated intragastrically, the maleate of the compound of formula (I) was injected into the tail vein to determine the drug concentration in plasma at different time points by LC/MS/MS method. The pharmacokinetic behavior, characteristics and the oral absolute bioavailability of the compounds in the present invention were studied and evaluated in rats.
The compound of formula (I), compounds of Example 1˜5.
28 healthy adult SD rats, male and female in half, were divided into 7 groups (4 rats in each group) and purchased from SINO-BRITSH SIPPR/BK LAB. ANIMAL LTD., CO, License number: SCXK (Shanghai) 2008-0016.
The intravenous injection administration group: the suitable amount of compounds were weighted, added into physiological saline and diluted to the final volume. The sample concentration was 1.0 mg/mL.
The intragastrical administration group: the suitable amount of compounds were weighted and added into 0.5% CMC-Na to prepare 1.0 mg/mL suspension by using ultrasound device. The sample should be prepared freshly away from light at the time of use.
28 healthy adult SD rats, male and female in half, were divided into 7 groups (4 rats in each group). After an overnight fast, the compound of Example 1, at a dose of 10 mg/kg (calculated by the base part), at a volume of 10 mL/kg, was administered intragastrically or injected into the tail vein.
For the intravenous injection administration group, blood samples (0.2 mL) were taken from orbital sinus at pre administration and at 2 minutes, 15 minutes, 30 minutes, 1.0 hour, 2.0 hours, 4.0 hours, 6.0 hours, 8.0 hours, 12.0 hours, 24.0 hours and 36.0 hours post administration, stored in heparinized tubes and centrifuged for 10 minutes at 3,500 rpm. The plasma samples were stored at −20° C.
For the intragastrical administration group, blood samples were taken at pre administration and at 0.5, 1.0, 2.0, 3.0, 4.0, 6.0, 8.0, 12.0, 24.0 and 36.0 hours post administration. The method to treat the samples was the same with the intravenous injection administration group. The rats were fed 2 hours after administration.
25 μL of rat plasmas taken at various time points after administration were mixed with 20 μL of internal standard solution and […] of methanol for 2 minutes by using a vortexer and the mixture was centrifuged for 10 minutes at 16,000 rpm. 10 pt of the supernatant was analyzed by LC-MS/MS.
25 μL of rat blank plasmas were mixed with a series of standard solutions respectively to obtain plasma concentration of 1.00, 2.00, 5.00, 25.0, 100, 500, 2000 and 5000 ng/mL. 20 μL of internal standard solution and 150 μL of methanol were added and then the mixture was operated according to “plasma sample pretreatment” method. Plasma concentration was used as the abscissa, the ratio of chromatographic peak area between the sample and internal standard was used as the ordinate, the linear regression was carried out by the weighted least square method (w=1/x^2) to obtain the typical standard curve equation.
Compartment model fitting was carried out on the pharmacokinetic behavior of the tested compounds to calculate the main pharmacokinetic parameters, wherein the measured values were taken for Cmax and tmax. Oral absolute bioavailability was calculated according to AUC0-t after intragastrical administration and intravenous injection at tail vein.

[2] = Solubility in conventional solvents (inventor's finding); assay type: physicochemical; settings: in words
Text: It is necessary to develop new forms of the compound of formula (I) to improve its solubility and pharmacokinetic absorption, which can be used in conventional preparation of dosage forms.

[3] = Solubility assay in physiological saline; assay type: physicochemical; settings: conclusion in words
Description: According to the conventional solubility measurement, the solubility of the compound of formula (I) and salts thereof were determined in physiological saline.

[4] = both sexes, Sprague-Dawley (SD), rat, plasma, iv, 10 mg/kg, Vein (tail vein injection) 10 mg/kg, read-out: MRT
[5] = both sexes, Sprague-Dawley (SD), rat, plasma, iv, Vein (tail vein injection) 10 mg/kg
[6] = both sexes, Sprague-Dawley (SD), rat, plasma, iv, Vein (tail vein injection) 10 mg/kg in physiological saline, read-out: AUC0-t
[7] = both sexes, Sprague-Dawley (SD), rat, plasma, po, 10 mg/kg, intragastric 10 mg/kg
[8] = both sexes, Sprague-Dawley (SD), rat, plasma, po, 10 mg/kg, intragastric 10 mg/kg, read-out: Cmax
[9] = both sexes, Sprague-Dawley (SD), rat, plasma, po, 10 mg/kg, intragastric 10 mg/kg, read-out: AUC0-t
[10] = both sexes, Sprague-Dawley (SD), rat, plasma, po, 10 mg/kg, intragastric 10 mg/kg, read-out: MRT
[11] = SD rats, Vein (tail vein injection) 10 mg/kg
[12] = both sexes, Sprague-Dawley (SD), rat, plasma, po, 10 mg/kg
[13] = both sexes, Sprague-Dawley (SD), rat, plasma, po, 10 mg/kg, intragastric 10 mg/kg, read-out: Tmax
[14] = SD rats, intragastric 10 mg/kg, maleate

Structure (SMILES)	MRT [1, 4]	half-life [1, 5]	AUC(0-t) [1, 6]	CL/F [1, 7]	half-life [1, 7]	Cmax [1, 8]	AUC(0-t) [1, 9]	MRT [1, 10]	bioavailability [1, 12]	Tmax [1, 13]	also measured
Cc1c(/C=C2\C(=O)Nc3ccc(F)cc32)[nH]c2c1C(=O)N(C[C@H](O)CN1CCOCC1)CCC2 [Example 4, (R,Z)-2-(5-fluoro-2-oxo-1,2-dihydro-indol-3-ylidenemethyl)-5-(2-hydroxy-3-morpholin-4-yl-propyl)-3-methyl-5,6,7,8-tetrahydro-1H-pyrrolo[3,2-c]azepin-4-one mesylate]	1.4 ± 0.35 h	5.97 ± 2.5 h	16100 ± 3970 ng·h/mL	24.8 mL/min/kg	3.41 ± 0.85 h	770 ± 390 ng/mL	7300 ± 5870 ng·h/mL	6.68 ± 1.58 h			F (oral absolute bioavailability) ([1]; SD rats, mesylate): 45.3%; Tmax ([1]; SD rats, intragastric 10 mg/kg, mesylate): 3.75 ± 1.71 h
Cc1c(/C=C2\C(=O)Nc3ccc(F)cc32)[nH]c2c1C(=O)N(C[C@H](O)CN1CCOCC1)CCC2 [The compound of formula (I), (R,Z)-2-(5-fluoro-2-oxo-1,2-dihydro-indol-3-ylidenemethyl)-5-(2-hydroxy-3-morpholin-4-yl-propyl)-3-methyl-5,6,7,8-tetrahydro-1H-pyrrolo[3,2-c]azepin-4-one]											solubility in conventional solvents [2]: poorly soluble; MRT [1, 11]: 1.40 ± 0.35 h; t1/2 [1, 11]: 5.97 ± 2.50 h; AUC(0-t) ([1]; SD rats, Vein (tail vein injection) 10 mg/kg in physiological saline): 16120 ± 3970 ng·h/mL; AUC(0-t) ([1]; SD rats, intragastric 10 mg/kg): 4490 ± 2790 ng·h/mL; MRT ([1]; SD rats, intragastric 10 mg/kg): 5.24 ± 2.23 h; Tmax ([1]; SD rats, intragastric 10 mg/kg): 2.00 ± 1.41 h; t1/2 ([1]; SD rats, intragastric 10 mg/kg): 3.31 ± 0.57 h; F (oral absolute bioavailability) ([1]; SD rats): 27.9%; Cmax ([1]; SD rats, intragastric 10 mg/kg): 640 ± 240 ng/mL
CC(O)C(=O)O.Cc1c(/C=C2\C(=O)Nc3ccc(F)cc32)[nH]c2c1C(=O)N(C[C@H](O)CN1CCOCC1)CCC2 [Example 3, (R,Z)-2-(5-fluoro-2-oxo-1,2-dihydro-indol-3-ylidenemethyl)-5-(2-hydroxy-3-morpholin-4-yl-propyl)-3-methyl-5,6,7,8-tetrahydro-1H-pyrrolo[3,2-c]azepin-4-one lactate]	1.4 ± 0.35 h	5.97 ± 2.5 h	16100 ± 3970 ng·h/mL	27.3 mL/min/kg	3.06 ± 1.21 h	810 ± 450 ng/mL	5900 ± 3350 ng·h/mL	6.28 ± 1.56 h	36.6%	2.5 ± 1 h	
Cc1c(/C=C2\C(=O)Nc3ccc(F)cc32)[nH]c2c1C(=O)N(C[C@H](O)CN1CCOCC1)CCC2.Cl [Example 5, (R,Z)-2-(5-fluoro-2-oxo-1,2-dihydro-indol-3-ylidenemethyl)-5-(2-hydroxy-3-morpholin-4-yl-propyl)-3-methyl-5,6,7,8-tetrahydro-1H-pyrrolo[3,2-c]azepin-4-one hydrochloride]	1.4 ± 0.35 h			33.8 mL/min/kg	3.6 ± 0.52 h	500 ± 100 ng/mL	4070 ± 1630 ng·h/mL	6.8 ± 1.58 h	25.2%	4.25 ± 2.06 h	half-life ([1]; both sexes, Sprague-Dawley (SD), rat, plasma, iv, 10 mg/kg, Vein (tail vein injection) 10 mg/kg): 5.97 ± 2.5 h; AUC(0-t) ([1]; both sexes, Sprague-Dawley (SD), rat, plasma, iv, 10 mg/kg, Vein (tail vein injection) 10 mg/kg in physiological saline, read-out: AUC0-t): 16100 ± 3970 ng·h/mL
Cc1c(/C=C2\C(=O)Nc3ccc(F)cc32)[nH]c2c1C(=O)N(C[C@H](O)CN1CCOCC1)CCC2.O=C(O)C[C@H](O)C(=O)O [Example 2, (R,Z)-2-(5-fluoro-2-oxo-1,2-dihydro-indol-3-ylidenemethyl)-5-(2-hydroxy-3-morpholin-4-yl-propyl)-3-methyl-5,6,7,8-tetrahydro-1H-pyrrolo[3,2-c]azepin-4-one malate]	1.4 ± 0.35 h	5.97 ± 2.5 h	16100 ± 3970 ng·h/mL	29.8 mL/min/kg	3.13 ± 0.97 h	850 ± 390 ng/mL	4900 ± 2790 ng·h/mL	4.29 ± 1.87 h	30.4%	1.75 ± 1.66 h	
Cc1c(/C=C2\C(=O)Nc3ccc(F)cc32)[nH]c2c1C(=O)N(C[C@H](O)CN1CCOCC1)CCC2 [Example 1, (R,Z)-2-(5-fluoro-2-oxo-1,2-dihydro-indol-3-ylidenemethyl)-5-(2-hydroxy-3-morpholin-4-yl-propyl)-3-methyl-5,6,7,8-tetrahydro-1H-pyrrolo[3,2-c]azepin-4-one maleate]											solubility compared with free base and other salts of the compound of formula (I) [3]: Conclusion: Compared with free base and other salts of the compound of formula (I), the solubility of maleate of the compound of formula (I) has significantly improved.; F (oral absolute bioavailability) ([1]; SD rats, maleate): 48.2%; Cmax [1, 14]: 950 ± 370 ng/mL; AUC(0-t) [1, 14]: 7770 ± 2990 ng·h/mL; MRT [1, 14]: 6.66 ± 2.05 h; Tmax [1, 14]: 5.75 ± 2.06 h; t1/2 [1, 14]: 3.01 ± 0.60 h
